{"source": "patent US7338932B2", "about": "“Methods of modulating functions of polypeptide GalNAc-transferases and of screening test substances to find agents herefor, pharmaceutical compositions comprising such agents and the use of such agents for preparing medicaments” (Glycozym APS, priority 2000, dated 2008)", "biological_target": "T1, secreted soluble GalNAc-T4 (sT4) (Homo sapiens, UniProt Q8N4A0)", "T1 construct": "using the GalNAc-T4-sol construct that encodes residues 32-578 inserted into pT7T3U19; 6xHis (N); thrombin cleavage site (N); T7 tag (N); made in house; host or cells: High Five insect cells (baculovirus)", "T1 sequence (Q8N4A0 32-578)": "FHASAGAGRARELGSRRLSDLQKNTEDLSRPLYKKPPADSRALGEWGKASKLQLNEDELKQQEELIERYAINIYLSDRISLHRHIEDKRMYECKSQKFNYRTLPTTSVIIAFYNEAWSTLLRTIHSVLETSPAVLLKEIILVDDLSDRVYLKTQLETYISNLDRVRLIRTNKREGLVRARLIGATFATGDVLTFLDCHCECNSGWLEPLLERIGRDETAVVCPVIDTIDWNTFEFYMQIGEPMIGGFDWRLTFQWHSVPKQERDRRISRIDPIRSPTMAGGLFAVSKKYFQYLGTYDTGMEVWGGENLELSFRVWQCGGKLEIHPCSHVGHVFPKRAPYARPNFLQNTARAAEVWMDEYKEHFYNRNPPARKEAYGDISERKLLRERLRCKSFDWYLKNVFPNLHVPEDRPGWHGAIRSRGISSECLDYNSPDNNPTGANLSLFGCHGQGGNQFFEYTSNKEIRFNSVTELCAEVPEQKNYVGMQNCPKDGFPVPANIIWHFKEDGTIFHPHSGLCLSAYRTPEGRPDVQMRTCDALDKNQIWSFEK", "assay": "Direct binding ELISA to GalNAc-MUC1 glycopeptide, competitive inhibition, sT4", "method": "Protein biotinylation was made as previously reported^62. The pH of 1 ml purified protein (0.3 mg/ml) in PBS was adjusted to pH 9 with 1 M NaOH and 40 μl N-hydroxy-succinimidobiotin (Sigma) dissolved in DMF (10 mg/ml) was added. The solution was mixed end-over-end for 2 hours at room temperature, and dialyzed three times against PBS and an equal volume of glycerol was added. The biotinylated proteins were stored at −20° C. in 50% glycerol until use.\nDirect binding ELISA assay was developed as follows: Polystyrene microtiter plates (Maxisorb, Nunc, Denmark) were coated with peptides or enzymatically glycosylated glycopeptides in PBS overnight at 4° C. Plates were washed and blocked with 0.1% Tween20 and 0.2% BSA in PBS for 1 h at room temperature, followed by incubation with biotinylated proteins in PBS with 0.05% Tween20 for 2 h at room temperature. After four washes with PBS, plates were incubated with 1:2,000 dilution streptavidin-HRP (Sigma) in PBS for 30 min at room temperature and washed four times with PBS. Development was performed with 0.5 mg/ml o-phenylenediamine and 0.02% H2O2 at room temperature for 15 min, and reaction stopped by adding 100 μl/well of 0.5 N H2SO4. Competitive inhibition assays were done at end-point titers of GalNAc-transferase proteins with one hour preincubations with inhibitor.\nIn binding studies using lectins without biotinylation antibodies to the HIS-tag and the T7-tag, or in some experiments antibodies raised to GalNAc-T2 and -T4 enzymes were used to detect binding.", "data": [{"smiles": "CC(=O)N[C@H]1[C@@H](OCc2ccccc2)O[C@H](CO)[C@@H](O)[C@@H]1O", "note": "[GlcNAcα-benzyl]", "values": [{"measurement": "Inhibition of GalNAc-T4 lectin binding", "setting": "FIG. 7, ELISA plates with GalNAc-Muc1", "value": "no inhibition"}, {"measurement": "IC50", "setting": "binding to GalNAc-MUC1 glycopeptide", "value": "> 100", "unit": "mM"}]}]}
